The subject of the data set is Sarcoma 180. Description: Antitumor activity, solid sarcoma 180 tumor, T/C of tumor weights at day 10 (Table I). Type of data set: in vivo, female Swiss white mice. Here is the method:
The compounds of the invention were tested for antitumor activity, i.e., for sensitivity to a planar dsp^2 platinum(II) coordination compound or an octahedral d^2 sp^3 platinum(IV) coordination compound using our standard screening tumor, solid sarcoma 180 tumor in female Swiss white mice, following standard protocols for this testing as set by the National Cancer Institute. (Cancer Chemotherapy Rep., 25 (1962)).
For these tests an S 180 tumor taken from a sacrificed mouse was disected free of superfluous tissue and cut under sterile conditions into approximately 10 milligram size pieces. These tissue pieces were then implanted by trocar in the left axillary region, subcutaneously, in new mice. The mice were, on the average, approximately four weeks old and weighed 18-20 grams. Taking day 0 as the day of implant, the animals were sacrificed on day 10. The tumors were excised and weighed and the ratio of the weights of the tumors in mice in the treated animals to the control set of animals was obtained. This ratio, multiplied by 100, is given as the T/C ratio in Table I.
For the first set of tests the coordination compound was freshly dissolved in sterile distilled water and injected intraperitoneally on day 1 into each of the test mice. The volume of the injection was usually 1/2 ml. In some cases, in order to get an active dose into the animal where the chemical was not soluble in this amount of solvent, a fine dispersion was prepared of the dose needed for the test. Thus, some of our test results were obtained on animals where a slurry of the compound was injected. These are so noted in Table I below. In addition, for some of the compounds, there was injected about 1 ml of solution, either in one single injection, or in 2 injections given a few hours apart of 1/2 ml each. These injections were initially given in 4 different dose levels for each new compound with 6 mice in each dose level. The tests covered a dose range from a low ineffective dose, to an upper dose level which produced some deaths within the time period of the experiment.

Setting [1] is: 20 mg/kg, single i.p. injection day 1.
Setting [2] is: 40 mg/kg, single i.p. injection day 1.
Where [3] appears, read: 60 mg/kg, single i.p. injection day 1.
[4] abbreviates: 80 mg/kg, single i.p. injection day 1.
The mark [5] stands for this setting: 100 mg/kg, single i.p. injection day 1.
Setting [6] is: 120 mg/kg, single i.p. injection day 1.
[7] abbreviates: 160 mg/kg, single i.p. injection day 1.
Setting [8] is: 140 mg/kg, single i.p. injection day 1.
Setting [9] is: 180 mg/kg, single i.p. injection day 1.
Where [10] appears, read: 30 mg/kg, single i.p. injection day 1, solution in H2O.
Where [11] appears, read: 40 mg/kg, single i.p. injection day 1, solution in H2O.
The mark [12] stands for this setting: 50 mg/kg, single i.p. injection day 1, solution in H2O.
The mark [13] stands for this setting: 60 mg/kg, single i.p. injection day 1, solution in H2O.
[14] abbreviates: 70 mg/kg, single i.p. injection day 1, solution in H2O.
Where [15] appears, read: 80 mg/kg, single i.p. injection day 1, solution in H2O.
[16] abbreviates: dose level 40 (unit not given), single i.p. injection day 1.
Where [17] appears, read: dose level 60 (unit not given), single i.p. injection day 1.
Setting [18] is: dose level 80 (unit not given), single i.p. injection day 1.
Setting [19] is: dose level 90 (unit not given), single i.p. injection day 1.
The mark [20] stands for this setting: dose level 100 (unit not given), single i.p. injection day 1.
The mark [21] stands for this setting: dose level 110 (unit not given), single i.p. injection day 1.
Setting [22] is: dose level 120 (unit not given), single i.p. injection day 1.
[23] abbreviates: dose level 20 (unit not given), single i.p. injection day 1.
Where [24] appears, read: 90 mg/kg, single i.p. injection day 1, solution in H2O.
[25] abbreviates: dose level 45 (unit not given), single i.p. injection day 1.
[26] abbreviates: dose level 75 (unit not given), single i.p. injection day 1.

In the case of `N.N.O=C([O-])C1(C(=O)[O-])CCC1.[Pt+4]` [1,1-cyclobutanedicarboxylate diammineplatinum (II)], the “No. of Deaths” value came to 0 under setting [1]; 0 under setting [2]; 0 under setting [3]; 0 under setting [4]; 0 under setting [5]; 0 under setting [6]. In addition, the “No. of Deaths” value under setting [7] was found to be 4. Moreover, the T/C was 71 under setting [1]; 60 under setting [2]; 38 under setting [3]; 42 under setting [4]; 69 under setting [5]; 18 under setting [6]. Further, the T/C under setting [7] is 62.
`CN.CN.O=C([O-])CC(=O)[O-].[Pt+2]` [malonatobis (methylamine) platinum (II)]: the “No. of Deaths” value under setting [4] came to 0; the “No. of Deaths” value under setting [5] turned out to be 0; the “No. of Deaths” value under setting [6] is 0; the “No. of Deaths” value under setting [8] came to 0; the “No. of Deaths” value under setting [7] was 1; the “No. of Deaths” value under setting [9] stood at 1. The T/C by setting is: under setting [4], 58; under setting [5], 53; under setting [6], 28; under setting [8], 25; under setting [7], 17; under setting [9], 19.
Regarding `CC1C(=O)[O][Pt]([NH2])([NH2])[O]C1=O` [Methylmalonatodiammineplatinum (II)], the “No. of Deaths” value was 0 under setting [10]; 0 under setting [11]; 0 under setting [12]; 0 under setting [13]; 3/6 under setting [14]; 6/6 under setting [15]. Besides, the T/C is, setting by setting: under setting [10], 39; under setting [11], 26; under setting [12], 35; under setting [13], 6.
Consider `CCC1C(=O)[O][Pt]2([NH]CC[NH]2)[O]C1=O` [ethylmalonatoethylenediamineplatinum (II)], for which the “No. of Deaths” value is 0 under setting [16]; 0 under setting [17]; 0 under setting [18]; 0 under setting [19]; 1 under setting [20]; 0 under setting [21]. In addition, the “No. of Deaths” value under setting [22] turned out to be 0. The T/C came out at 72 under setting [16]; 81 under setting [17]; 79 under setting [18]; 47 under setting [19]; 55 under setting [20]; 41 under setting [21]. The molecule also displayed a T/C under setting [22] of 58.
Consider `CCC(C(=O)[O-])C(=O)[O-].N.N.[Pt+2]` [ethylmalonatodiammineplatinum (II)], for which the “No. of Deaths” value runs as follows: under setting [10], 0; under setting [11], 0; under setting [12], 0; under setting [13], 0; under setting [14], 0; under setting [15], 0. Further, the T/C by setting is: under setting [10], 57; under setting [11], 43; under setting [12], 47; under setting [13], 39; under setting [14], 17; under setting [15], 16.
For `NCCCN.O=C([O-])CC(=O)[O-].[Pt+2]` [malonato-1,3 propylenediamineplatinum (II)], the “No. of Deaths” value is, setting by setting: under setting [23], 0; under setting [16], 0; under setting [17], 0; under setting [18], 1. In addition, the T/C is, setting by setting: under setting [23], 69; under setting [16], 79; under setting [17], 21; under setting [18], 35.
For the molecule `CC1C(=O)[O][Pt]2([NH]CC[NH]2)[O]C1=O` [methylmalonatoethylenediamineplatinum(II)], the “No. of Deaths” value stood at 0 under setting [10]; 0 under setting [11]; 0 under setting [12]; 0 under setting [13]; 1 under setting [14]; 1 under setting [24]. For the same molecule, the T/C is, setting by setting: under setting [10], 78; under setting [11], 80; under setting [12], 51; under setting [13], 26; under setting [14], 20; under setting [24], 4.
`CC(N)CN.O=C([O-])CC(=O)[O-].[Pt+2]` [malonato-1,2 propylenediamineplatinum (II)]: the “No. of Deaths” value reads like this: under setting [25], 0; under setting [17], 1; under setting [26], 3; under setting [19], 5. Besides, the T/C by setting is: under setting [25], 50; under setting [17], 9; under setting [26], 16.

The values are drawn from patent US4657927A, “Malonato platinum compounds” (Research Corporation, priority 1983, dated 1987).
